From US12331063B2, “Hetero-bicyclic inhibitors of KRAS” (Incyte Corporation, priority 2021, dated 2025)

Biological target: KRAS G12D (Homo sapiens, UniProt P01116, G12D)
Assay: GDP-GTP exchange assay (bodipy-GDP/GppNHp, SOS1), KRAS G12D
Type: biochemical
Settings: bodipy-loaded KRAS G12D 2.5 nM, 4 hours incubation after adding GppNHp-SOS1 mixture
Experimental: The inhibitor potency of the exemplified compounds was determined in a fluorescence based guanine nucleotide exchange assay, which measures the exchange of bodipy-GDP (fluorescently labeled GDP) for GppNHp (Non-hydrolyzable GTP analog) to generate the active state of KRAS in the presence of SOS1 (guanine nucleotide exchange factor). Inhibitors were serially diluted in DMSO and a volume of 0.1 μL was transferred to the wells of a black low volume 384-well plate. 5 μL/well volume of bodipy-loaded KRAS G12C diluted to 5 nM in assay buffer (25 mM Hepes pH 7.5, 50 mM NaCl, 10 mM MgCl2 and 0.01% Brij-35) was added to the plate and pre-incubated with inhibitor for 2 hours at ambient temperature. Appropriate controls (enzyme with no inhibitor or with a G12C inhibitor (AMG-510)) were included on the plate. The exchange was initiated by the addition of a 5 μL/well volume containing 1 mM GppNHp and 300 nM SOS1 in assay buffer. The 10 μL/well reaction concentration of the bodipy-loaded KRAS G12C, GppNHp, and SOS1 were 2.5 nM, 500 uM, and 150 nM, respectively. The reaction plates were incubated at ambient temperature for 2 hours, a time estimated for complete GDP-GTP exchange in the absence of inhibitor. For the KRAS G12D and G12V mutants, similar guanine nucleotide exchange assays were used with 2.5 nM as final concentration for the bodipy loaded KRAS proteins and with 4 hours and 3 hours incubation after adding GppNHp-SOS1 mixture for G12D and G12V respectively. A cyclic peptide described to selectively bind G12D mutant (Sakamoto et al., BBRC 484.3 (2017), 605-611) or internal compounds with confirmed binding were used as positive controls in the assay plates. Fluorescence intensities were measured on a PheraStar plate reader instrument (BMG Labtech) with excitation at 485 nm and emission at 520 nm.
Either GraphPad prism or XLfit was used to analyze the data. The IC50 values were derived by fitting the data to a four parameter logistic equation producing a sigmoidal dose-response curve with a variable Hill coefficient. Prism equation: Y=Bottom+(Top−Bottom)/(1+10^((Log IC50−X)*Hill slope)); XLfit equation: Y=(A+((B−A)/(1+((X/C)^D)))) where X is the logarithm of inhibitor concentration and Y is the response.
The symbol “†” indicates IC50≤100 nM, “††” indicates IC50>100 nM but ≤1 μM; and “†††” indicates IC50 is >1 μM but ≤5 μM, “††††” indicates IC50 is >5 μM but ≤10 μM.

Chain of KRAS G12D (P01116 1-188 isoform P01116-2 G12D): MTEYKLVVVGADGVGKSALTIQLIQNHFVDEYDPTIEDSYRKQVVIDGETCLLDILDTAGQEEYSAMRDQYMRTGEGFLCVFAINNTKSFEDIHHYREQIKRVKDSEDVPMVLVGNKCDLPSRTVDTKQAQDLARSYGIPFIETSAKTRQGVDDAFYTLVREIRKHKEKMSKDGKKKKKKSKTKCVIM

SMILES | IC50 [nM]
CN(C)C1CN(c2nc(N3C[C@@H](N)C[C@H]3CO)c3cc(CCC#N)c(-c4cc(O)cc5ccccc45)c(F)c3c2C#N)C1 [Example 11, 1-((2S,4S)-4-amino-2-(hydroxymethyl)pyrrolidin-1-yl)-7-(2-cyanoethyl)-3-(3-(dimethylamino)azetidin-1-yl)-5-fluoro-6-(3-hydroxynaphthalen-1-yl)isoquinoline-4-carbonitrile] | 100 to 1000
CN(C)C1CN(c2nc(N3CCC(CC#N)C3)c3cc(CCC#N)c(-c4cc(O)cc5ccccc45)c(F)c3c2C#N)C1 (stereo not shown) [Example 12, 7-(2-cyanoethyl)-1-(3-(cyanomethyl)pyrrolidin-1-yl)-3-(3-(dimethylamino)azetidin-1-yl)-5-fluoro-6-(3-hydroxynaphthalen-1-yl)isoquinoline-4-carbonitrile] | ≤ 100
CN(C)Cc1cccc(-c2nc(N3C4CCC3CNC4)c3cc(CCC#N)c(-c4cc(O)cc5ccccc45)c(F)c3c2C#N)c1 [Example 9, 1-(3,8-diazabicyclo[3.2.1]octan-8-yl)-7-(2-cyanoethyl)-3-(3-((dimethylamino)methyl)phenyl)-5-fluoro-6-(3-hydroxynaphthalen-1-yl)isoquinoline-4-carbonitrile] | 100 to 1000
Cc1c(N2CC(N(C)C)C2)nc(N2C3CCC2CNC3)c2cc(CCC#N)c(-c3cc(O)cc4ccccc34)c(F)c12 [Example 3, 3-(1-(3,8-diazabicyclo[3.2.1]octan-8-yl)-3-(3-(dimethylamino)azetidin-1-yl)-5-fluoro-6-(3-hydroxynaphthalen-1-yl)-4-methylisoquinolin-7-yl)propanenitrile] | 100 to 1000
C[C@@H]1C[C@H](N)CN1c1nc(N2CC(N(C)C)C2)c(C#N)c2c(F)c(-c3cc(O)cc4ccccc34)c(CCC#N)cc12 [Example 14, 1-((2R,4S)-4-amino-2-methylpyrrolidin-1-yl)-7-(2-cyanoethyl)-3-(3-(dimethylamino)azetidin-1-yl)-5-fluoro-6-(3-hydroxynaphthalen-1-yl)isoquinoline-4-carbonitrile] | ≤ 100
CN1CCC(Oc2nc(N3C4CCC3CNC4)c3cc(CCC#N)c(-c4cc(O)cc5ccccc45)c(F)c3c2C#N)CC1 [Example 8, 1-(3,8-diazabicyclo[3.2.1]octan-8-yl)-7-(2-cyanoethyl)-5-fluoro-6-(3-hydroxynaphthalen-1-yl)-3-((1-methylpiperidin-4-yl)oxy)isoquinoline-4-carbonitrile] | 100 to 1000
CN(C)C1CN(c2nc(N3C4CCC3CNC4)c3cc(CCC#N)c(-c4cc(O)cc5ccccc45)c(F)c3c2C2CC2)C1 [Example 5, 3-(1-(3,8-diazabicyclo[3.2.1]octan-8-yl)-4-cyclopropyl-3-(3-(dimethylamino)azetidin-1-yl)-5-fluoro-6-(3-hydroxynaphthalen-1-yl)isoquinolin-7-yl)propanenitrile] | 100 to 1000
CN(C)C1CN(c2nc(N3C4CCC3CNC4)c3cc(CCC#N)c(-c4cc(O)cc5ccccc45)c(F)c3c2-c2ccccc2)C1 [Example 4, 3-(1-(3,8-diazabicyclo[3.2.1]octan-8-yl)-3-(3-(dimethylamino)azetidin-1-yl)-5-fluoro-6-(3-hydroxynaphthalen-1-yl)-4-phenylisoquinolin-7-yl)propanenitrile] | 5000 to 10000
CN(C)C1CN(c2nc(N3C4CCC3CNC4)c3cc(CCC#N)c(-c4cc(O)cc5ccccc45)c(F)c3c2Cl)C1 [Example 2, 3-(1-(3,8-diazabicyclo[3.2.1]octan-8-yl)-4-chloro-3-(3-(dimethylamino)azetidin-1-yl)-5-fluoro-6-(3-hydroxynaphthalen-1-yl)isoquinolin-7-yl)propanenitrile] | 100 to 1000
CN(C)C1CN(c2nc(N3C4CCC3CNC4)c3cc(CCC#N)c(-c4cc(O)cc5ccccc45)c(F)c3c2C#N)C1 [Example 6, 1-(3,8-diazabicyclo[3.2.1]octan-8-yl)-7-(2-cyanoethyl)-3-(3-(dimethylamino)azetidin-1-yl)-5-fluoro-6-(3-hydroxynaphthalen-1-yl)isoquinoline-4-carbonitrile] | 100 to 1000

Second part, the compound after the results:

IC50 [nM] | SMILES
≤ 100 | CN(C)C1CN(c2nc(N3C4CCC3CNC4)c3ccc(-c4cc(O)cc5ccccc45)c(F)c3c2C#N)C1 [Example 1, 1-(3,8-diazabicyclo[3.2.1]octan-8-yl)-3-(3-(dimethylamino)azetidin-1-yl)-5-fluoro-6-(3-hydroxynaphthalen-1-yl)isoquinoline-4-carbonitrile]
100 to 1000 | CN(C)C1CN(c2nc(N3C[C@H]4CC[C@@H]3CN4)c3cc(CCC#N)c(-c4cc(O)cc5ccccc45)c(F)c3c2C#N)C1 [Example 10, 1-((1R,4R)-2,5-diazabicyclo[2.2.2]octan-2-yl)-7-(2-cyanoethyl)-3-(3-(dimethylamino)azetidin-1-yl)-5-fluoro-6-(3-hydroxynaphthalen-1-yl)isoquinoline-4-carbonitrile]
100 to 1000 | CN1CCC[C@H]1COc1nc(N2C3CCC2CNC3)c2cc(CCC#N)c(-c3cc(O)cc4ccccc34)c(F)c2c1C#N [Example 7, 1-(3,8-diazabicyclo[3.2.1]octan-8-yl)-7-(2-cyanoethyl)-5-fluoro-6-(3-hydroxynaphthalen-1-yl)-3-(((S)-1-methylpyrrolidin-2-yl)methoxy)isoquinoline-4-carbonitrile]
≤ 100 | N#Cc1c(OC[C@@]23CCCN2C[C@H](F)C3)nc(N2CC3CCC(C2)N3)c2cnc(-c3cc(O)cc4ccccc34)c(F)c12 [Example 15, 1-(3,8-diazabicyclo[3.2.1]octan-3-yl)-5-fluoro-3-(((2R,7aS)-2-fluorotetrahydro-1H-pyrrolizin-7a(5H)-yl)methoxy)-6-(3-hydroxynaphthalen-1-yl)-2,7-naphthyridine-4-carbonitrile]
≤ 100 | CN(C)C1CN(c2nc(N3CC[C@H](N)C3)c3cc(CCC#N)c(-c4cc(O)cc5ccccc45)c(F)c3c2C#N)C1 [Example 13, 1-((S)-3-aminopyrrolidin-1-yl)-7-(2-cyanoethyl)-3-(3-(dimethylamino)azetidin-1-yl)-5-fluoro-6-(3-hydroxynaphthalen-1-yl)isoquinoline-4-carbonitrile]
≤ 100 | CCc1c(F)ccc2cc(O)cc(-c3ncc4c(N5CC6CCC(C5)N6)nc(N5CC(C)(N(C)C)C5)c(C#N)c4c3F)c12 [Example 16, 1-(3,8-diazabicyclo[3.2.1]octan-3-yl)-3-(3-(dimethylamino)-3-methylazetidin-1-yl)-6-(8-ethyl-7-fluoro-3-hydroxynaphthalen-1-yl)-5-fluoro-2,7-naphthyridine-4-carbonitrile]
